Data from the NIST ThermoML archive (doi:10.1016/j.fluid.2007.09.001).
± gives the expanded uncertainty stated by the source.

Tests used:
[1] = Liquid; Ebulliometric method (Recirculating still)
[2] = refractive index (Na D-line) (dimensionless); conditions: 293.15 K; 101.33 kPa; Liquid; Standard Abbe refractometry

Row | Normal boiling temperature [1] | refractive index [2] | SMILES
1 | 181.06 ± 0.5 °C | 1.4375 ± 0.0021 | CC(O)C(C)O (stereo not drawn) [2,3-butanediol]
2 | 116.97 ± 0.5 °C | 1.3993 ± 0.0021 | CCCCO [butan-1-ol]
3 | 77.09 ± 0.5 °C | 1.3701 ± 0.0021 | CCOC(C)=O [ethyl acetate]

Row | SMILES | Normal boiling temperature [1] | refractive index [2]
4 | CCCCOC(C)=O [butyl ethanoate] | 125.96 ± 0.5 °C | 1.3941 ± 0.0021
